According to US4604380A, “C-23-substituted mycaminosyltylonolide compounds, pharmaceutical compositions and methods of use” (Eli Lilly and Company, priority 1985, dated 1986):
Values after ≈ are worked out from the molar mass of the structure shown. Where two headings read alike, the source gives them in different places.

Legend:
[1] = test system: Streptococcous pneumoniae; test: ED50 vs. Streptococcous pneumoniae experimental infection in mice (Table VII); assay type: in vivo; conditions: Mus musculus, sc, subcutaneous, two doses, read-out: ED50 Subcutaneous
Method: (§1) Certain formula 1a compounds have also shown in vivo antimicrobial activity against experimental bacterial infections. When two doses of test compound were administered to mice in experimental infections, the activity observed was measured as an ED50 value [effective dose in mg/kg to protect 50% of the test animals: see Warren Wick, et al., J. Bacteriol. 81, 233-235 (1961)].

[2] = test system: Pasteurella hemolytica 23C; test: MIC, conventional broth-dilution microtiter test (Table IV); assay type: cell-based
Method: (§2) The MIC's s in Table III were determined by standard agar-dilution assays. The MIC's in Table IV were obtained using a conventional broth-dilution microtiter test.

[3] = test system: Staphylococcus aureus 19C; test: as above; assay type: cell-based
Method: as §2

[4] = test system: Pasteurella multocida 68C; test: as above; assay type: cell-based
Method: as §2

[5] = test system: Pasteurella multocida 22A; test: as above; assay type: cell-based
Method: as §2

[6] = test system: Mycoplasma hyorhinis 29E; test: as above; assay type: cell-based; conditions: broth-dilution microtiter; Mycoplasma hyorhinis 29E; read-out: MIC
Method: as §2

[7] = test system: Pasteurella multocida 17E; test: as above; assay type: cell-based
Method: as §2

[8] = test system: Pasteurella hemolytica 22C; test: as above; assay type: cell-based
Method: as §2

[9] = test system: Pasteurella multocida 40G; test: as above; assay type: cell-based
Method: as §2

[10] = test system: Pasteurella hemolytica 41D; test: as above; assay type: cell-based
Method: as §2

[11] = test system: Mycoplasma gallisepticum 36H; test: as above; assay type: cell-based; conditions: Mycoplasmoides gallisepticum
Method: as §2

[12] = test system: Streptococcus sp. 19F; test: as above; assay type: cell-based
Method: as §2

[13] = test system: Mycoplasma synoviae 40A; test: as above; assay type: cell-based; conditions: Mycoplasmopsis synoviae, 40A
Method: as §2

[14] = test system: Bordetella bronchisepticum 95B; test: as above; assay type: cell-based
Method: as §2

[15] = test system: Mycoplasma hyopneumoniae S5972; test: as above; assay type: cell-based; conditions: Mesomycoplasma hyopneumoniae
Method: as §2

[16] = test system: Mycoplasma gallisepticum 29C; test: as above; assay type: cell-based; conditions: Mycoplasmoides gallisepticum, 29C
Method: as §2

[17] = test system: Pasteurella multocida 60A; test: as above; assay type: cell-based
Method: as §2

[18] = test system: Streptococcus pyogenes; test: ED50 vs Streptococcus pyogenes experimental infection in mice (Table VI); assay type: in vivo; conditions: two doses, several values = results from more than one test; for ED50: po, read-out: ED50 Oral
Method: as §1

[19] = test system: Staphylococcus aureus; test: ED50 vs. Staphylococcus aureus experimental infection in mice (Table V); assay type: in vivo; conditions: sc, subcutaneous, two doses, dose protecting 50% of animals, read-out: ED50 Subcutaneous
Method: as §1

[20] = test system: Streptococcus pneumoniae Park I; test: microbe, parasite or virus in culture; assay type: cell-based; conditions: Streptococcus pneumoniae; read-out: MIC
Method: as §2

[21] = test system: Pasteurella multocida; test: Activity in Pasteurella multocida-infected one-day-old chicks (Table VIII); assay type: in vivo; conditions: subcutaneous 30 mg/kg × 2, 1 and 4 hours post-challenge, all non-medicated chicks died within 24 hours
Method: Table VIII summarizes the results of tests in which illustrative compounds were evaluated against a Pasteurella infection in one-day-old chicks. The compounds were administered parenterally after challenge of the chicks with Pasteurella multocida (0.1 mL of a 10^-4 dilution of a twenty-hour tryptose broth culture of an avian P. multocida given subcutaneously). In these tests, all non-medicated infected chicks died within 24 hours of Pasteurella challenge. In the tests summarized in Table VIII, the compounds were administered by subcutaneous injection at a dosage of 30 mg/kg, 1 and 4 hours post-challenge of the chicks with P. multocida.

[22] = test system: Streptococcus Group D X66; test: MIC, standard agar-dilution assay (Table III); assay type: cell-based
Method: as §2

[23] = test system: Staphylococcus aureus X400; test: MIC, standard agar-dilution assay (Table III); assay type: cell-based; conditions: Staphylococcus aureus, X400
Method: as §2

[24] = test system: Staphylococcus aureus V41; test: MIC, standard agar-dilution assay (Table III); assay type: cell-based; conditions: Staphylococcus aureus V41, penicillin-resistant strain
Method: as §2

[25] = test system: Staphylococcus epidermidis 222; test: MIC, standard agar-dilution assay (Table III); assay type: cell-based; conditions: agar dilution; Staphylococcus epidermidis 222; read-out: MIC
Method: as §2

[26] = test system: Staphylococcus aureus S13E; test: MIC, standard agar-dilution assay (Table III); assay type: cell-based
Method: as §2

[27] = test system: Streptococcus pyogenes C203; test: MIC, standard agar-dilution assay (Table III); assay type: cell-based; conditions: agar dilution; Streptococcus pyogenes C203; read-out: MIC
Method: as §2

[28] = test system: Staphylococcus aureus X1.1; test: MIC, standard agar-dilution assay (Table III); assay type: cell-based
Method: as §2

[29] = test system: Haemophilus influenzae C.L.; test: MIC, standard agar-dilution assay (Table III); assay type: cell-based
Method: as §2

[30] = test system: Haemophilus influenzae 76; test: MIC, standard agar-dilution assay (Table III); assay type: cell-based; conditions: agar dilution; Haemophilus influenzae 76, ampicillin-resistant strain; read-out: MIC
Method: as §2

[31] = test system: Streptococcus Group D 2041; test: MIC, standard agar-dilution assay (Table III); assay type: cell-based; conditions: GROUPD2041
Method: as §2

[32] = test system: Staphylococcus epidermidis EPI1; test: MIC, standard agar-dilution assay (Table III); assay type: cell-based; conditions: Staphylococcus epidermidis, EPI1
Method: as §2

[33] = test system: Mycoplasma gallisepticum 15E; test: MIC, conventional broth-dilution microtiter test (Table IV); assay type: cell-based; conditions: Mycoplasmoides gallisepticum; broth-dilution microtiter; Mycoplasma gallisepticum 15E; read-out: MIC
Method: as §2

Row | SMILES | ED50 [1] | MIC [6] | MIC [12] | MIC [13] | MIC [14] | MIC [16] | ED50 [18] | ED50 [19] | MIC [20] | Number of Deaths/Number Treated [21] | MIC [22] | MIC [23] | MIC [24] | MIC [25] | MIC [26] | MIC [27] | MIC [28] | MIC [30] | MIC [31] | MIC [32] | other results
1 | CCC1OC(=O)CC(O)C(C)C(OC2OC(C)C(O)C(N(C)C)C2O)C(CC=O)CC(C)C(=O)C=CC(C)=CC1CN1CC2(C)CC1CC(C)(C)C2 (stereo not drawn) [Compound 23, 23-deoxy-23-(1,3,3-trimethyl-6-azabicyclo[3.2.1]octan-6-yl)-OMT] | 3.6 mg/kg | 1.56 µg/mL (≈ 2.13 µM) | < 0.048 µg/mL | < 0.048 µg/mL | 12.5 µg/mL (≈ 17.1 µM) | < 0.048 µg/mL | 100 mg/kg | 3.79 mg/kg | 0.06 µg/mL (≈ 0.0819 µM) | 10/10 | 0.5 µg/mL (≈ 0.682 µM) | 0.5 µg/mL (≈ 0.682 µM) | 0.5 µg/mL (≈ 0.682 µM) | 0.125 µg/mL (≈ 0.171 µM) | 0.5 µg/mL (≈ 0.682 µM) | 0.25 µg/mL (≈ 0.341 µM) | 0.5 µg/mL (≈ 0.682 µM) | 1 µg/mL (≈ 1.36 µM) | 0.5 µg/mL (≈ 0.682 µM) | 0.5 µg/mL (≈ 0.682 µM) | MIC ([2]; broth-dilution microtiter, Pasteurella hemolytica 23C, read-out: MIC): 1.56 µg/mL (≈ 2.13 µM); MIC ([3]; broth-dilution microtiter, Staphylococcus aureus 19C, read-out: MIC): 1.56 µg/mL (≈ 2.13 µM); MIC ([4]; broth-dilution microtiter, Pasteurella multocida 68C, read-out: MIC): 0.78 µg/mL (≈ 1.06 µM); MIC ([5]; broth-dilution microtiter, Pasteurella multocida 22A, read-out: MIC): 0.39 µg/mL (≈ 0.532 µM); MIC ([7]; broth-dilution microtiter, Pasteurella multocida 17E, bovine isolate, read-out: MIC): 0.78 µg/mL (≈ 1.06 µM); MIC ([8]; broth-dilution microtiter, Pasteurella hemolytica 22C, read-out: MIC): 1.56 µg/mL (≈ 2.13 µM); MIC ([9]; broth-dilution microtiter, Pasteurella multocida 40G, read-out: MIC): 0.78 µg/mL (≈ 1.06 µM); MIC ([10]; broth-dilution microtiter, Pasteurella hemolytica 41D, read-out: MIC): 1.56 µg/mL (≈ 2.13 µM); MIC ([11]; 36H): 3.12 µg/mL (≈ 4.26 µM); MIC ([15]; S5972): 0.048 µg/mL (≈ 0.0655 µM); MIC ([17]; broth-dilution microtiter, Pasteurella multocida 60A, avian isolate, read-out: MIC): 1.56 µg/mL (≈ 2.13 µM); MIC ([29]; agar dilution, Haemophilus influenzae C.L., ampicillin-sensitive strain, read-out: MIC): 2 µg/mL (≈ 2.73 µM)
2 | CCC1OC(=O)CC(O)C(C)C(OC2OC(C)C(O)C(N(C)C)C2O)C(CC=O)CC(C)C(=O)C=CC(C)=CC1CNC12CC3CC(CC(C3)C1)C2 (stereo not drawn) [Compound 1, 23-deoxy-23-(1-adamantanylamino)-OMT] | 2.5 mg/kg | 0.39 µg/mL (≈ 0.534 µM) | < 0.048 µg/mL | < 0.048 µg/mL | 6.25 µg/mL (≈ 8.55 µM) | 0.097 µg/mL (≈ 0.133 µM) | > 100 mg/kg | 3.58 mg/kg | 0.06 µg/mL (≈ 0.0821 µM) | 0/10 | 0.5 µg/mL (≈ 0.684 µM) | 0.5 µg/mL (≈ 0.684 µM) | 0.5 µg/mL (≈ 0.684 µM) | 0.125 µg/mL (≈ 0.171 µM) | 0.5 µg/mL (≈ 0.684 µM) | 0.125 µg/mL (≈ 0.171 µM) | 0.5 µg/mL (≈ 0.684 µM) | 0.5 µg/mL (≈ 0.684 µM) | 0.5 µg/mL (≈ 0.684 µM) | 0.5 µg/mL (≈ 0.684 µM) | MIC ([2]; Pasteurella, 23C): 1.56 µg/mL (≈ 2.13 µM); MIC ([3]; Staphylococcus aureus, 19C): 0.78 µg/mL (≈ 1.07 µM); MIC ([4]; Pasteurella multocida, 68C): 0.78 µg/mL (≈ 1.07 µM); MIC ([5]; Pasteurella multocida, 22A): 0.78 µg/mL (≈ 1.07 µM); MIC ([7]; Pasteurella multocida, 17E): 0.78 µg/mL (≈ 1.07 µM); MIC ([8]; Pasteurella, 22C): 3.12 µg/mL (≈ 4.27 µM); MIC ([9]; Pasteurella multocida, 40G): 0.78 µg/mL (≈ 1.07 µM); MIC ([10]; Pasteurella, 41D): 1.56 µg/mL (≈ 2.13 µM); MIC ([11]; broth-dilution microtiter, Mycoplasma gallisepticum 36H, read-out: MIC): 6.25 µg/mL (≈ 8.55 µM); MIC ([15]; broth-dilution microtiter, Mycoplasma hyopneumoniae S5972, read-out: MIC): < 0.024 µg/mL; MIC [33]: 6.25 µg/mL (≈ 8.55 µM); MIC ([17]; Pasteurella multocida, 60A): 0.78 µg/mL (≈ 1.07 µM); ED50 Oral ([18]; oral): 81.8 mg/kg × 2; MIC ([29]; Haemophilus influenzae): 2 µg/mL (≈ 2.74 µM)
